Consider five molecules from ChEMBL document CHEMBL1138935, “Lead optimization providing a series of flavone derivatives as potent nonsteroidal inhibitors of the cytochrome P450 aromatase enzyme” (J Med Chem, 2006).

By inhibition is commonly meant the drop in the measured response relative to a control, in per cent. Low readings indicate little suppression, high ones strong suppression.

This data set addresses T1, CYP17 (steroid 17-alpha-hydroxylase/17,20 lyase) (Homo sapiens, UniProt P05093).
T1 sequence (P05093 whole entry): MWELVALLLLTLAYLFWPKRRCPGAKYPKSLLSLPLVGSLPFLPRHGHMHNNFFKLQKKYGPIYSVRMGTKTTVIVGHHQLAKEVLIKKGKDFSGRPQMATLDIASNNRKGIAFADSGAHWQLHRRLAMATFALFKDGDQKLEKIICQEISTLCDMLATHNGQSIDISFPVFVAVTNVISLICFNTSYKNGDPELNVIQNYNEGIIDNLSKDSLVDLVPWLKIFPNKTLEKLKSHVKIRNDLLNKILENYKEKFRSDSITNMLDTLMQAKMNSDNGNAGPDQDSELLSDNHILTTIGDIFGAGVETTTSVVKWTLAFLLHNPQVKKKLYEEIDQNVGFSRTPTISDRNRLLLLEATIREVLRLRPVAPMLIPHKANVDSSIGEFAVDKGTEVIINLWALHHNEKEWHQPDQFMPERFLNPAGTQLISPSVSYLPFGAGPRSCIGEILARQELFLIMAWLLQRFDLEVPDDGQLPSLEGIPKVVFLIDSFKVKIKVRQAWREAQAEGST
Briefly: Inhibition of CYP17 at 2.5 uM.
In turn, `O=c1c(Cn2ccnc2)c(-c2ccc(Br)cc2)oc2ccccc12` registered an inhibition at 2.5 µM of 27%. The result for `COc1ccc2c(=O)c(Cn3ccnc3)c(-c3ccc(C#N)cc3)oc2c1` reads 12%; that for `COc1ccc2c(=O)c(Cn3ccnc3)c(-c3ccc(Br)cc3)oc2c1`, 29%; that for `COc1ccc2c(=O)c(Cn3ccnc3)c(-c3ccc([N+](=O)[O-])cc3)oc2c1`, 9%. Take `COc1ccc(-c2oc3ccccc3c(=O)c2Cn2ccnc2)cc1`: the inhibition at 2.5 µM amounted to 26%.
